Measured values: patent US6737383B1, “Herbicidal oxadiazolidines” (priority 1999, dated 2004)

How the values were obtained:
giant foxtail = test: Test B pre/postemergence giant foxtail; format: in vivo, Setaria faberii
Summary of the method: (§1)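 Herbicidal effect was estimated by eye on a ten-point control scale after plants spent twelve to sixteen days in a greenhouse following soil or foliar treatment. Foliar sprays targeted plants at one to four leaves; all doses were formulated in a non-phytotoxic solvent with surfactant.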

bedstraw = test: Test B pre/postemergence bedstraw; format: in vivo, Galium aparine
Summary of the method: as §1

rice = test: Test B flood test rice; format: in vivo, Oryza sativa
Summary of the method: (§2)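 Flood test on plants grown to the 2-leaf stage; treated plants kept in greenhouse twelve to sixteen days, then visually rated against controls on a 0 (no effect) to 10 (complete control) scale.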

blackgrass = test: Test B pre/postemergence blackgrass; format: in vivo, Alopecurus myosuroides
Summary of the method: as §1

smallflower flatsedge = test: Test B flood test smallflower flatsedge; format: in vivo, Cyperus difformis
Summary of the method: as §2

wheat = test: Test B pre/postemergence wheat; format: in vivo, Triticum aestivum
Summary of the method: as §1

pigweed = test: Test B pre/postemergence pigweed; format: in vivo, Amaranthus retroflexus
Summary of the method: as §1

velvetleaf = test: Test B pre/postemergence velvetleaf; format: in vivo, Abutilon theophrasti
Summary of the method: as §1

wild oat = test: Test B pre/postemergence wild oat; format: in vivo, Avena fatua
Summary of the method: as §1

crabgrass = test: Test B pre/postemergence crabgrass; format: in vivo, Digitaria sanguinalis
Summary of the method: as §1

morningglory = test: Test B pre/postemergence morningglory; format: in vivo, Ipomoea hederacea
Summary of the method: as §1

soybean = test: Test B pre/postemergence soybean; format: in vivo, Glycine max
Summary of the method: as §1

purple nutsedge = test: Test B pre/postemergence purple nutsedge; format: in vivo, Cyperus rotundus
Summary of the method: as §1

cocklebur = test: Test B pre/postemergence cocklebur; format: in vivo, Xanthium strumarium
Summary of the method: as §1

bamyardgrass = test: Test B flood test barnyardgrass; format: in vivo, Echinochloa crus-galli
Summary of the method: as §2

surinam grass = test: Test B pre/postemergence surinam grass; format: in vivo, Brachiaria decumbens
Summary of the method: as §1

[1] = Postemergence, Rate 125 g/ha, scale of 0 to 10 where 0 is no effect and 10 is complete control
[2] = Postemergence, Rate 250 g/ha, scale of 0 to 10, 0 is no effect, 10 is complete control
[3] = Postemergence, Rate 500 g/ha, scale of 0 to 10 where 0 is no effect and 10 is complete control
[4] = Postemergence, Rate 1000 g/ha, scale 0 to 10 (0 no effect, 10 complete control)
[5] = Preemergence, Rate 125 g/ha, scale of 0 to 10 where 0 is no effect and 10 is complete control
[6] = Preemergence, Rate 500 g/ha, scale of 0 to 10 where 0 is no effect and 10 is complete control
[7] = Rate 1000 g/ha, Preemergence, scale 0 to 10 (0 no effect, 10 complete control)
[8] = Pre-emergence, Rate 1000 g/ha, scale 0 to 10 (0 no effect, 10 complete control)
[9] = Rate 125 g/ha, under heading Pre-emergence, flood test species, visual evaluation after twelve to sixteen days
[10] = Rate 250 g/ha, Pre-emergence (flood test species), scale 0 to 10, 0 is no effect, 10 is complete control
[11] = Rate 500 g/ha, Pre-emergence section of Table B, 0 to 10 scale (0 no effect, 10 complete control)

CCOP(=O)(Cn1c(=O)on(C(=O)N(c2ccc(F)cc2)C(C)C)c1=O)OCC [Compound 587]
9: Giant foxtail plant response rating (giant foxtail; [6]) | Wild oats plant response rating (wild oat; [6]) | Crabgrass plant response rating (crabgrass; [6]) | Morningglory plant response rating (morningglory; [4])
6: Plant response rating, Blackgrass (blackgrass; [3]) | Blackgrass plant response rating (0 to 10 scale) (blackgrass; Preemergence, Rate 250 g/ha) | Crabgrass plant response rating (crabgrass; [5]) | Morningglory plant response rating (morningglory; [2]) | Soybean plant response rating (soybean; [2]) | Plant response rating, Soybean (soybean; [3]) | Soybean plant response rating (soybean; [4])
0: Plant response rating, Giant foxtail (giant foxtail; [1]) | Giant foxtail plant response rating (giant foxtail; [2]) | Bedstraw plant response rating (bedstraw; [5]) | Rice plant response rating (rice; [8]) | Rice plant response rating (0 to 10 scale, 0 is no effect, 10 is complete control) (rice; [9]) | Rice plant response rating (rice; [10]) | Rice plant response rating (rice; [11]) | S. Flatsedge plant response rating (smallflower flatsedge; [8]) | S. Flatsedge plant response rating (0 to 10 scale, 0 is no effect, 10 is complete control) (smallflower flatsedge; [9]) | S. Flatsedge plant response rating (smallflower flatsedge; [10]) | S. Flatsedge plant response rating (smallflower flatsedge; [11]) | Plant response rating, Wheat (wheat; [1]) | Wheat plant response rating (wheat; [2]) | Plant response rating, Wheat (wheat; [3]) | Wheat plant response rating (wheat; [5]) | Plant response rating, Redroot pigweed (pigweed; [1]) | Redroot pigweed plant response rating (pigweed; [2]) | Plant response rating, Redroot pigweed (pigweed; [3]) | Redroot pigweed plant response rating (pigweed; [4]) | Redroot pigweed plant response rating (pigweed; [5]) | Plant response rating, Velvetleaf (velvetleaf; [1]) | Velvetleaf plant response rating (velvetleaf; [2]) | Plant response rating, Velvetleaf (velvetleaf; [3]) | Velvetleaf plant response rating (velvetleaf; [5]) | Plant response rating, Wild oats (wild oat; [1]) | Wild oats plant response rating (wild oat; [2]) | Plant response rating, Wild oats (wild oat; [3]) | Wild oats plant response rating (wild oat; [4]) | Plant response rating, Crabgrass (crabgrass; [1]) | Morningglory plant response rating (morningglory; [5]) | Morningglory plant response rating (morningglory; [6]) | Soybean plant response rating (soybean; [5]) | Plant response rating, Nutsedge (purple nutsedge; [1]) | Nutsedge plant response rating (purple nutsedge; [2]) | Plant response rating, Nutsedge (purple nutsedge; [3]) | Nutsedge plant response rating (purple nutsedge; [4]) | Nutsedge plant response rating (purple nutsedge; [5]) | Nutsedge plant response rating (purple nutsedge; [6]) | Plant response rating, Nutsedge (purple nutsedge; [7]) | Plant response rating, Cocklebur (cocklebur; [1]) | Cocklebur plant response rating (cocklebur; [2]) | Plant response rating, Cocklebur (cocklebur; [3]) | Cocklebur plant response rating (cocklebur; [4]) | Cocklebur plant response rating (cocklebur; [5]) | Cocklebur plant response rating (0 to 10 scale) (cocklebur; Preemergence, Rate 250 g/ha) | Cocklebur plant response rating (cocklebur; [6]) | Plant response rating, Cocklebur (cocklebur; [7]) | Barnyardgrass plant response rating (bamyardgrass; [8]) | Barnyardgrass plant response rating (0 to 10 scale, 0 is no effect, 10 is complete control) (bamyardgrass; [9]) | Barnyardgrass plant response rating (bamyardgrass; [10]) | Barnyardgrass plant response rating (bamyardgrass; [11]) | Plant response rating, B. signalgrass (surinam grass; [1]) | B. signalgrass plant response rating (surinam grass; [2]) | Plant response rating, B. signalgrass (surinam grass; [3]) | B. signalgrass plant response rating (surinam grass; [5])
10: Plant response rating, Giant foxtail (giant foxtail; [7]) | Plant response rating, Blackgrass (blackgrass; [7]) | Plant response rating, Wild oats (wild oat; [7]) | Plant response rating, Crabgrass (crabgrass; [7]) | Plant response rating, B. signalgrass (surinam grass; [7])
4: Giant foxtail plant response rating (giant foxtail; [4]) | Plant response rating, Velvetleaf (velvetleaf; [7]) | Plant response rating, Morningglory (morningglory; [1]) | Plant response rating, Soybean (soybean; [1])
7: Bedstraw plant response rating (bedstraw; [4]) | Plant response rating, Wheat (wheat; [7]) | Plant response rating, Morningglory (morningglory; [3]) | B. signalgrass plant response rating (surinam grass; [6])
8: Giant foxtail plant response rating (giant foxtail; [5]) | Blackgrass plant response rating (blackgrass; [6])
2: Plant response rating, Giant foxtail (giant foxtail; [3]) | Bedstraw plant response rating (bedstraw; [6]) | Redroot pigweed plant response rating (pigweed; [6]) | Velvetleaf plant response rating (velvetleaf; [4]) | Velvetleaf plant response rating (velvetleaf; [6]) | Wild oats plant response rating (wild oat; [5]) | Plant response rating, Crabgrass (crabgrass; [3]) | Soybean plant response rating (soybean; [6]) | Plant response rating, Soybean (soybean; [7])
5: B. signalgrass plant response rating (surinam grass; [4]) | B. signalgrass plant response rating (0 to 10 scale, 0 is no effect, 10 is complete control) (surinam grass; Preemergence, Rate 250 g/ha)
3: Plant response rating, Bedstraw (bedstraw; [3]) | Plant response rating, Bedstraw (bedstraw; [7]) | Plant response rating, Blackgrass (blackgrass; [1]) | Blackgrass plant response rating (blackgrass; [2]) | Blackgrass plant response rating (blackgrass; [5]) | Wheat plant response rating (wheat; [4]) | Wheat plant response rating (wheat; [6]) | Plant response rating, Redroot pigweed (pigweed; [7]) | Crabgrass plant response rating (crabgrass; [4]) | Plant response rating, Morningglory (morningglory; [7])
